Measurements taken from ChEMBL document CHEMBL1201862, “PubChem BioAssay data set” (2004).
Calls of active or inactive are those of the source.

What was measured:
[1] = target: T1, Mannose-6-phosphate isomerase (Homo sapiens, UniProt P34949); assay: MPI inhibition at elevated mannose 6-phosphate – biochemical, fluorescence intensity, high mannose 6-phosphate, primary screen (AID 1220)
T1 sequence (P34949 whole entry): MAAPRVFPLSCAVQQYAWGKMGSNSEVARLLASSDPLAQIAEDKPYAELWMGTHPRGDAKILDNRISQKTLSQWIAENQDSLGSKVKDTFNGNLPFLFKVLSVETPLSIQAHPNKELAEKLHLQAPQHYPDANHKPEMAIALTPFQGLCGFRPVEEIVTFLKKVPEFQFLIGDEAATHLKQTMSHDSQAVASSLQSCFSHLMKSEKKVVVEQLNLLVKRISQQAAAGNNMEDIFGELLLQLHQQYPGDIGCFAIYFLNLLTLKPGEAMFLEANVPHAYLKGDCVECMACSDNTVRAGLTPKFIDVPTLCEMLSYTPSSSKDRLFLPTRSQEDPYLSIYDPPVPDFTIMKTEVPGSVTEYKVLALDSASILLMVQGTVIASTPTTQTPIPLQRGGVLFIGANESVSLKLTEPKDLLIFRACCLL

[2] = target: T2, Protein RecA (Mycobacterium tuberculosis, UniProt P9WHJ3); assay: Fluorescence Cell-Free Homogeneous Dose Retest to Identify Inhibitors of RecA-Intein Splicing Activity. [Related pubchem assays (depositor defined):AID2097, AID2223, AID489010, AID492950]; format: functional
T2 sequence (P9WHJ3 whole entry): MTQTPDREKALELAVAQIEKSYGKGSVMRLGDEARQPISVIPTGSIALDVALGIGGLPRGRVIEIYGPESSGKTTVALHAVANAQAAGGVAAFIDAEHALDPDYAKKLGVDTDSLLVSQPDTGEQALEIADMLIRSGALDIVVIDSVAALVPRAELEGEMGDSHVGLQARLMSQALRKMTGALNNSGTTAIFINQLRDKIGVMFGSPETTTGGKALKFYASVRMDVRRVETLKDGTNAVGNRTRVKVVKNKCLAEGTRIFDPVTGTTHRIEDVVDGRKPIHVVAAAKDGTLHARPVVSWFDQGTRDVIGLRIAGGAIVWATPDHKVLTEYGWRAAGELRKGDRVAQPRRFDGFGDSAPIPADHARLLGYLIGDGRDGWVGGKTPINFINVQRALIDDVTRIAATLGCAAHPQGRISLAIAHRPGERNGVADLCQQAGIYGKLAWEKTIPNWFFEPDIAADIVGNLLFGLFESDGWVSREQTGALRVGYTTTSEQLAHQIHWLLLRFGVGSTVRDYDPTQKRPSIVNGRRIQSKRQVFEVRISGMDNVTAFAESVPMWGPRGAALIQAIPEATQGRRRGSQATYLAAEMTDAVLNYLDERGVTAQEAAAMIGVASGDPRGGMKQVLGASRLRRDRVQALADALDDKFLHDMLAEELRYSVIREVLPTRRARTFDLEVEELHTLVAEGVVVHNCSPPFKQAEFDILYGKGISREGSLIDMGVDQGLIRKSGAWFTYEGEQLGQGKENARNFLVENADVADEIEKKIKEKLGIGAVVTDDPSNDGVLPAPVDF

[3] = target: T3, Replicative DNA helicase DnaB (Mycobacterium tuberculosis, UniProt P9WMR3); assay: DnaB intein splicing inhibitors, dose response, biochemical, cell-free fluorescence (AID 449749); format: functional
T3 sequence (P9WMR3 whole entry): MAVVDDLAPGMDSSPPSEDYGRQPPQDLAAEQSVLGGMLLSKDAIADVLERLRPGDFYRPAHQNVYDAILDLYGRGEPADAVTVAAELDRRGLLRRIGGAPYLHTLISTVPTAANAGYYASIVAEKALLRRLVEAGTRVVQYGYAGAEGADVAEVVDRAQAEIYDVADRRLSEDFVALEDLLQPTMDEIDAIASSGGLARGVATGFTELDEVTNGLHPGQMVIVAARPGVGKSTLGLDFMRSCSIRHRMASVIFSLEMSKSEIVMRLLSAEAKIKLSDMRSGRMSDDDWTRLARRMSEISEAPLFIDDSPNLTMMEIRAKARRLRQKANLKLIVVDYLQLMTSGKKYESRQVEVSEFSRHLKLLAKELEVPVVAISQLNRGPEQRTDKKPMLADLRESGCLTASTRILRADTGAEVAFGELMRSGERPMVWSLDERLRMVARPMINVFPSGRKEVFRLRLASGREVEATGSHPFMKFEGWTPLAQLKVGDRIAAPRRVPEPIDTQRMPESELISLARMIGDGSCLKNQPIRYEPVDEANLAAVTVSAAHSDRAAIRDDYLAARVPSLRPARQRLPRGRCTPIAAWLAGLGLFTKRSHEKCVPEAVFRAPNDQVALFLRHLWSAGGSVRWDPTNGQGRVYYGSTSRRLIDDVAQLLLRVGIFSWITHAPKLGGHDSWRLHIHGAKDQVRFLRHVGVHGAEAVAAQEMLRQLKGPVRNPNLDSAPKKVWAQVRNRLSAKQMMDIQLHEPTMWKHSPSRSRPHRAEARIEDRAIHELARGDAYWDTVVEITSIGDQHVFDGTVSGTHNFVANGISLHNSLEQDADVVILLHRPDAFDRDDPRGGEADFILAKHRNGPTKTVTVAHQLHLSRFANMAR

[4] = target: T4, Protein skinhead-1 (Caenorhabditis elegans, UniProt P34707); format: functional
T4 sequence (P34707 whole entry): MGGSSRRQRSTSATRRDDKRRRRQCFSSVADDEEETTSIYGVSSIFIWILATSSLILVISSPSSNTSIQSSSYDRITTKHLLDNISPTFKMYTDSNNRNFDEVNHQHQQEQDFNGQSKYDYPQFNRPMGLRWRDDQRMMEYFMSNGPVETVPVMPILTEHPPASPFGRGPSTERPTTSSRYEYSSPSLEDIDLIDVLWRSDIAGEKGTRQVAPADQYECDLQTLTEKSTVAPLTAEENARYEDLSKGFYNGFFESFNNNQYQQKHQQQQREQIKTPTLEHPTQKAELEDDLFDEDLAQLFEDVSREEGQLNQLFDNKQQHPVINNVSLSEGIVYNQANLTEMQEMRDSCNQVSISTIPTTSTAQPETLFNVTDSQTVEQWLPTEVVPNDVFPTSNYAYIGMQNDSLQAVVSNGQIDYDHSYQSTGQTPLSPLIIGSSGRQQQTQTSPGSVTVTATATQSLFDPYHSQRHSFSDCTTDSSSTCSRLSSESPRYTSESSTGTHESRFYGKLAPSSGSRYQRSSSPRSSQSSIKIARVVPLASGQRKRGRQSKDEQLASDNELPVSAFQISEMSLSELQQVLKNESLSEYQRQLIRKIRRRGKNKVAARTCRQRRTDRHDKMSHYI

[5] = target: T1, Mannose-6-phosphate isomerase; assay: MPI enzyme activity inhibition – biochemical, fluorescence intensity, coupled assay, primary screen (AID 1209)
[6] = target: Peroxisome proliferator-activated receptor gamma/Nuclear receptor corepressor 2 (Homo sapiens, UniProt P37231+Q9Y618); assay: Counterscreen for NR2E3 inverse agonists: TR-FRET-based biochemical high throughput dose response assay to identify inverse agonists of the interaction between peroxisome proliferator-activated receptor gamma (PPARg) and nuclear receptor co-repressor 2 (NCOR2).; format: functional
Sequence of Peroxisome proliferator-activated receptor gamma/Nuclear receptor corepressor 2 (P37231 whole entry): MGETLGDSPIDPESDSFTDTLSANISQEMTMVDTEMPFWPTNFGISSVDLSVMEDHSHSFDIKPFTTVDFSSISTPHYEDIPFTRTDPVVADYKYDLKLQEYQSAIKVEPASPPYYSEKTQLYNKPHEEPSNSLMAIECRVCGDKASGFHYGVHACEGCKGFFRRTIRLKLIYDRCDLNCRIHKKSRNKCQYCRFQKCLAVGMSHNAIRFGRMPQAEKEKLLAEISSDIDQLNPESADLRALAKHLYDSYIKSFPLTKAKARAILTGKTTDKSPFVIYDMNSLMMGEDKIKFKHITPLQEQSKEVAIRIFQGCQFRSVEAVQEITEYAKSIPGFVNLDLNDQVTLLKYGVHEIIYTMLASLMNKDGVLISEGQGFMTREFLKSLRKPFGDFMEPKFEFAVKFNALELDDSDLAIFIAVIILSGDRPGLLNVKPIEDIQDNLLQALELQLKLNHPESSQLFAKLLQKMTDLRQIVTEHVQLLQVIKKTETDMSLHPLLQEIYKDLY
Sequence of Peroxisome proliferator-activated receptor gamma/Nuclear receptor corepressor 2 (Q9Y618 whole entry): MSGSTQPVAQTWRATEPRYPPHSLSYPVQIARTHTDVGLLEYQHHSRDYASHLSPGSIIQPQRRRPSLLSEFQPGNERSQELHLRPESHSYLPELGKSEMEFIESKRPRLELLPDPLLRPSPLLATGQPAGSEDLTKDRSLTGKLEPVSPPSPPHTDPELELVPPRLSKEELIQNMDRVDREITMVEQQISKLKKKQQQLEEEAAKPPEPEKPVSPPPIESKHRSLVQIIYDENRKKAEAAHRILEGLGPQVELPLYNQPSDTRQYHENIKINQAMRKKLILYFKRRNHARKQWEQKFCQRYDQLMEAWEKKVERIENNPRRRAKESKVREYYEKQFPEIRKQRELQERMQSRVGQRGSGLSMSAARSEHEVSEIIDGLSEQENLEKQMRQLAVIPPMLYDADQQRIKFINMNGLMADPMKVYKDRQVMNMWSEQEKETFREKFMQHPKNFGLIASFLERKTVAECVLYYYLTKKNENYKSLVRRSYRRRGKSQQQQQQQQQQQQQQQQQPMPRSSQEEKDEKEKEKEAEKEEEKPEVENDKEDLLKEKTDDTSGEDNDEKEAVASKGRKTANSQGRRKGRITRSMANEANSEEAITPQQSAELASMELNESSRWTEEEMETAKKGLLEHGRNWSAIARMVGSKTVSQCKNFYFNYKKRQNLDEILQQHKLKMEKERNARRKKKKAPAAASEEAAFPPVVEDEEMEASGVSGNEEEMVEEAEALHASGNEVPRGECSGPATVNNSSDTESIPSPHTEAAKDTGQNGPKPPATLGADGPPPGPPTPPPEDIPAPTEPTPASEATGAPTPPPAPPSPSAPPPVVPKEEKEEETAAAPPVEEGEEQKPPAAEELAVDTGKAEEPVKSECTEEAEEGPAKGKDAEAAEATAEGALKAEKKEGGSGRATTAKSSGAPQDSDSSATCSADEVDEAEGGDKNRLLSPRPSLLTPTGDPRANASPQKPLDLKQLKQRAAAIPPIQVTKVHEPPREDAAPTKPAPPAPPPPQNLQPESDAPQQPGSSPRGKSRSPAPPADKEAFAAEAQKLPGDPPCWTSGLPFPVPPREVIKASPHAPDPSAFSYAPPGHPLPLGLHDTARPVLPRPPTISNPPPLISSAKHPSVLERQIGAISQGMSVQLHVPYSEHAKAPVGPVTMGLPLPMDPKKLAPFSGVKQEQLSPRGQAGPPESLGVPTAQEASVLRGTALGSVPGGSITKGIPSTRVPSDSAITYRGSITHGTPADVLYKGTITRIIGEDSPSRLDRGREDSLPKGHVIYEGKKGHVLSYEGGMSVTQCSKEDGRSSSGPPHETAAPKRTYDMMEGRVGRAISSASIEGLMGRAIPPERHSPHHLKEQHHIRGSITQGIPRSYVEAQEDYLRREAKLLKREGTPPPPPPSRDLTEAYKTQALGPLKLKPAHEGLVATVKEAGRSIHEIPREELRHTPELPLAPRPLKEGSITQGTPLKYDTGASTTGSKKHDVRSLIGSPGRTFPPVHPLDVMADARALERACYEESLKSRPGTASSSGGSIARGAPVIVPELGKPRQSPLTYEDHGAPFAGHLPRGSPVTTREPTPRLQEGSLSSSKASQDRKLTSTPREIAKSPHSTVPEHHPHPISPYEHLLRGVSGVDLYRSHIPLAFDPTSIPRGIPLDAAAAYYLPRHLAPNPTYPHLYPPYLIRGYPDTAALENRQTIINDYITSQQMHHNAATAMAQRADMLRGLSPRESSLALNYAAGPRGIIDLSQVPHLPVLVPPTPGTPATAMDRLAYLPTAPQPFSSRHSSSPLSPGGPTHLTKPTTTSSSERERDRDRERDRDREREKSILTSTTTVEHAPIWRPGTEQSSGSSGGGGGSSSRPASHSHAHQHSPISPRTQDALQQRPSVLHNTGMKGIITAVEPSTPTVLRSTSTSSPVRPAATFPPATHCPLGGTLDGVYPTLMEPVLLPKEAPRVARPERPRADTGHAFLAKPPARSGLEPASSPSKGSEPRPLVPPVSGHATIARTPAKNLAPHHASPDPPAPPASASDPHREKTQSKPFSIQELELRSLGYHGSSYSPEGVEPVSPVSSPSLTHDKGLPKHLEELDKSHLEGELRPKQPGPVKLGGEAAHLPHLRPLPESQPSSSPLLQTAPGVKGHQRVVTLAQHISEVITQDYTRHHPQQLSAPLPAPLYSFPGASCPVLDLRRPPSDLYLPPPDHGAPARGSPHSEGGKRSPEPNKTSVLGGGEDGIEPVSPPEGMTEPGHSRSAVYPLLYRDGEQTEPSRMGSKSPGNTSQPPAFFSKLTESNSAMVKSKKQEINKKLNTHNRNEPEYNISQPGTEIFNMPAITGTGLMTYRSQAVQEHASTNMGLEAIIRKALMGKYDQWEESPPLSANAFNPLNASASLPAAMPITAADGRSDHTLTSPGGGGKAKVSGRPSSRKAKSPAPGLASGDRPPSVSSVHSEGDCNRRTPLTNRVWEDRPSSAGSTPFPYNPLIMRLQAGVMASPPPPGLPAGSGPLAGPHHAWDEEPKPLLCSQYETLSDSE

[7] = target: T5, Corticotropin-releasing factor receptor 2/Corticotropin-releasing factor-binding protein (Homo sapiens, UniProt P24387+Q13324); assay: Dose Response confirmation of uHTS hits for small molecule antagonists of the CRF-binding protein and CRF-R2 receptor complex.; format: functional; conditions: read-out: IC50_Mean
T5 sequence (Q13324 whole entry): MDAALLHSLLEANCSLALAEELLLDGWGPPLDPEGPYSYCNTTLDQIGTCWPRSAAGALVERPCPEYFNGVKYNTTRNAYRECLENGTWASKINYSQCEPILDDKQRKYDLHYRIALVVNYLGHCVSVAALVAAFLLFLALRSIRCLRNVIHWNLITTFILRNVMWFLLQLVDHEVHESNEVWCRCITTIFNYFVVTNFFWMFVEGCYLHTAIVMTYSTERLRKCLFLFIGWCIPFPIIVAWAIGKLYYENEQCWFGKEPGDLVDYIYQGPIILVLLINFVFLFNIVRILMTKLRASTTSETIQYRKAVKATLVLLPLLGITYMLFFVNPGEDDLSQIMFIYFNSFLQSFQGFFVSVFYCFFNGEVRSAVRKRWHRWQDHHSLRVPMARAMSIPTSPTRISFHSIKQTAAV
T5 sequence (P24387 whole entry): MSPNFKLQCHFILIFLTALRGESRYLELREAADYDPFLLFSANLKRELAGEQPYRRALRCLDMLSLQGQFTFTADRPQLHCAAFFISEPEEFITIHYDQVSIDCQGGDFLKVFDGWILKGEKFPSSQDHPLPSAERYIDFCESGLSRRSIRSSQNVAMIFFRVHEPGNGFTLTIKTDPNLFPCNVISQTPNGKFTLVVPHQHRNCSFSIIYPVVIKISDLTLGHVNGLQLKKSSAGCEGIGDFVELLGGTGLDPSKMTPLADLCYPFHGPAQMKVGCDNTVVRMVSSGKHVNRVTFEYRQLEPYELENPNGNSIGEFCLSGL

[8] = target: T5, Corticotropin-releasing factor receptor 2/Corticotropin-releasing factor-binding protein; assay: activators of CRF receptor 2 with binding protein – uHTS hits, confirmation (AID 602473); format: functional; conditions: read-out: EC50_Mean
[9] = target: Photoreceptor-specific nuclear receptor (Homo sapiens, UniProt Q9Y5X4); assay: ligands suppressing NR2E3 nuclear receptor activity – biochemical, TR-FRET, dose response (AID 463256); format: functional
Sequence of Photoreceptor-specific nuclear receptor (Q9Y5X4 whole entry): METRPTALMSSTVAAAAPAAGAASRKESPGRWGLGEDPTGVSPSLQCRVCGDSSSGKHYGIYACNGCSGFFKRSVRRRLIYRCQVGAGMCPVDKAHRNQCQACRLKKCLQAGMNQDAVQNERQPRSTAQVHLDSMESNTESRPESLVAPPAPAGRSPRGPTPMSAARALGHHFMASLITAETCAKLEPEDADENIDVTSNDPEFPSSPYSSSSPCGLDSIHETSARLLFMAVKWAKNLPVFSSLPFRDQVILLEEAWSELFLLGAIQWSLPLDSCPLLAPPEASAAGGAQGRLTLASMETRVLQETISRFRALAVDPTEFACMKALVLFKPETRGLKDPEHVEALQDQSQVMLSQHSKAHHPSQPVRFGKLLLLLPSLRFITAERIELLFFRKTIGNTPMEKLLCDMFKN

[10] = Luminescence-based counterscreen assay for KLF5 inhibitors: dose response cell-based high throughput screening assay to identify cytotoxic compounds using the IEC-6 intestinal epithelial cell line. [Related pubchem assays: 1700 (Primary screen.), 1834 (Confirmation screen.), 1858 (Summary AID.), 1905 (Counterscreen.)]; format: functional

For `CCN(CC)c1ccc2oc(=O)c(C)nc2c1`, the IC50 [1] was 12.7 µM (active), the EC50 [2] was 7.63 µM (active) and the AC50 [3] was > 380 µM (inactive). For the same molecule, the IC50 [4] was > 100 µM (inactive) and the IC50 [5] was 10 µM (active).

With `CC(=O)c1ccc(NC(=O)CSc2ccc(-c3ccc4c(c3)OCO4)nn2)cc1` the IC50 [6] was 2.9 µM (active), the IC50 [7] was > 47.1 µM (inactive) and the EC50 [8] was > 53 µM (inactive). The IC50 [9] was 3.53 µM (active).

In the case of `COc1ccc2nc(SCC(=O)NC3CCCC3)c(C)cc2c1`, the IC50 [10] is reported as 16 µM (not active).
